In brackets after ≈: the same amount, converted by molar mass. Where two headings read alike, the source gives them in different places.
B1: PM-477: genetically engineered recombinant Gardnerella-specific endolysin, amino acid sequence SEQ ID NO: 1, His-tag cleaved off (protein)
chain: SKRGIDVSEWQGDIDFNAVKASGVEFVIIRAGYGIGCKDKWFEQNYRKAKTCGLDVGAYWYSYANSGFEAAEEAQSCVNMLSGKSFEYPVYFDLEEKSQLNRGRAFCDSLITGFCNKLESCGYYAGFYTSLSTANNLVSAHVRNRYALWIAQWNTHCSYQGSYGLWQYSSSGSVPGVAGRVDMDYAYVDYPSIIKNVGLNGYKNGGSYTAPQISSIDEVAREVINGDWGNGNERKQRLTSAGYDYASVQNKVNELLGVKAYRKSVDELAREVIRGTWGNGSTRKQRLTQAGYDYNAVQKRVNELL
modifications: His-tag cleaved off; H2B10

Experiments:
[1] = system: Gardnerella strains from vaginal swabs of BV patients; experiment: MIC and MBC99.5 on 18 in-house BV patient isolates; assay type: cell-based, Gardnerella spp.
Experimental: The minimum inhibitory concentration (MIC), which is a standard measure of the activity of antimicrobials, was determined according to the Clinical and Laboratory Standards Institute protocol (2018) Methods for Antimicrobial Susceptibility Testing of Anaerobic Bacteria (Carpenter et al., 2018). […] Controls for growth in the absence of antimicrobials were also included. OD600 was recorded by a microplate reader (Tecan, Grodig, Austria) after incubation at 37° C. for 48 h or, for some fast-growing strains, after incubation for 24 h. Absence of growth was defined as OD600≤0.14. […] MIC readout and MBC99.5 spotting were performed after 72 h incubation for H2B10B11.

[2] = system: G. swidsinskii biofilm; assay type: cell-based, Gardnerella swidsinskii
Experimental: (§1) Gardnerella spp. (see figures for strain specification) was resuspended in brain heart infusion broth supplemented with 2% (w/v) gelatin, 0.5% yeast extract (w/v), 0.1% starch (w/v) and 0.25% glucose (w/v) (sBHIG). Passaged strains were resuspended in unbuffered NYCB supplemented with 1% glucose (w/v) (sNYCB). The OD600 was set to 0.1 (approx. 10^7-10^8 CFU/mL) and the cell suspension was diluted 1:10 in growth medium as input for biofilm formation. A total of 200 μL of the respective bacterial suspensions was added to 96-well flat bottom plates (tissue-culture treated, Sigma-Aldrich). The biofilms were grown under anaerobic conditions at 37° C. for 40 to 72 hours, depending on the isolate. Subsequently, the supernatant was removed, and the biofilm was treated with antimicrobials dissolved in sBHIG (at pH 5 for treatment with PM-477 (H2B10), and unbuffered for treatment with antibiotics) in 100 μL and incubated anaerobically at 37° C. for another 24 hours. After the treatment, the biofilms were washed twice with 200 μL 1x PBS and dissolved by vigorous pipetting (40x up and down). Serial dilutions of the dissolved cells were spotted on chocolate agar plates. The plates were incubated anaerobically for two to three days and the minimum biofilm eradication concentration (MBEC) of the endolysin or the antibiotics in use were calculated.
Gardnerella dominated biofilms covering the human vaginal epithelial cells are now generally considered as a hallmark of BV. Thus, it was tested how effective antibiotics and PM-477 (H2B10) are in penetrating and killing in vitro pre-formed, 40-72 h old biofilms of various Gardnerella strains.

[3] = system: Six Gardnerella strains; experiment: microbe, parasite or virus in culture; assay type: cell-based, Gardnerella spp.
Experimental: (§2) The final volume of the reaction was 100 µL and the reactions were performed in triplicate in 384-well plates. The OD600 was measured using a microplate reader (Tecan, Grodig, Austria) to generate timepoint 0 h baseline values. The reactions were incubated anaerobically for 24 h, then the OD600 was measured again, and the MIC was measured as the lowest concentration with OD600<0.14. […] This process was repeated for a maximum of 25 rounds. In each round, the input CFU/mL was determined by quantitative plating.
(§3) In parallel, one representative of G. vaginalis (ATCC 14018^T) was passaged 25 times with PM-477 (H2B10).

[4] = system: passaged G. piotii biofilm; experiment: MBEC on biofilms of passaged strains; assay type: cell-based, Gardnerella piotii; conditions: G. piotii (UGent 18.01T) passaged with MDZ-OH
Experimental: as §1
All MICs determined after 48 h of incubation.

[5] = 0.75% MDZ vaginal gel over 16 weeks, cited from earlier work
[6] = system: G. vaginalis (ATCC 14018T); experiment: Serial passaging for resistance formation with PM-477; assay type: cell-based, Gardnerella vaginalis; conditions: G. vaginalis (ATCC 14018T) passaged 25 times with PM-477 (H2B10)
Experimental: as §2, §3

[7] = system: Gardnerella strains grown as biofilm; experiment: MBEC on pre-formed biofilms, summary over ancestor strains; assay type: cell-based, Gardnerella spp.; conditions: 40-72 h old pre-formed biofilms
Experimental: as §1, with “calculated. […]” for “calculated.”

[8] = ancestor G. swidsinskii GS 9838-1, pre-formed biofilm
[9] = ancestor G. swidsinskii UGent BV 7.1, pre-formed biofilm

| Molecule | MIC ([1]; Gardnerella, 72 h, 18 in-house BV patient isolates, read-out: median MIC) [µg/mL] | MBC ([1]; Gardnerella, 18 in-house BV patient isolates, read-out: median MBC99.5) [µg/mL] | number of resistant isolates (MIC>32 μg/mL) ([1]; panel of 18 isolates from vaginal swabs of BV patients) | MBEC [2, 8] [µg/mL] | MBEC [2, 9] [µg/mL] | MIC ([3]; Gardnerella, read-out: MIC after 9 rounds of passaging, 4 out of 6 strains, maximal concentration in use) [µg/mL] | pre-passaging MIC range ([3]; six Gardnerella strains before passaging) [µg/mL] | MBEC passaged [4] [µg/mL] | probability of lasting cure ([5]; 12 weeks after end of therapy (week 28)) [%] | probability of lasting cure ([5]; after 16 weeks) [%] | MIC after 25 rounds of passaging [6] [µg/mL] | MBEC, range over strains [7] [µg/mL] |
| --- | --- | --- | --- | --- | --- | --- | --- | --- | --- | --- | --- | --- |
| Cc1ncc([N+](=O)[O-])n1CCO [MDZ, metronidazole] | 64 (≈ 374 µM) | 1540 (≈ 8970 µM) | 10 | 32 | 32 | > 512 | 8 to 256 | >2048 | 34 | 70 |  |  |
| B1 |  |  |  | <2 | 32 |  |  | <1 |  |  | 8 | <2 to 32 |

Source: patent US20250144186A1, “NOVEL THERAPEUTIC USES OF GARDNERELLA ENDOLYSINS” (priority 2022, published 2025)
